Results reported in ChEMBL document CHEMBL4007478, “Diarylpentadienone derivatives (curcumin analogues): Synthesis and anti-inflammatory activity” (Bioorg Med Chem Lett, 2017).
≈ marks a conversion by molar mass, not a printed value. Calls of active or inactive are those of the source. The calls are words filed in the database; no cut-off is given here.

Assays:
[1] = Aqueous solubility of the compound in water at 1 mg exposed to ultrasound for 1 hr measured after 30 mins by UV-spectrophotometric method; assay type: physicochemical; conditions: for solubility at 1 h: water
RAW264.7 [2] = assay: Anti-inflammatory activity in mouse RAW264.7 cells assessed as inhibition of LPS-induced TNFalpha production at 20 uM by ELISA; assay type: functional
RAW264.7 [3] = assay: Anti-inflammatory activity in mouse RAW264.7 cells assessed as inhibition of LPS-induced IL-6 production at 20 uM by ELISA; assay type: functional
[4] = biological target: Transcription factor p65 (Mus musculus) (UniProt Q04207); assay: Inhibition of NF-kB p65 in mouse RAW264.7 cells assessed as reduction in LPS-induced COX2 expression at 0.3 ug/ml preincubated for 12 hrs followed by LPS stimulation for 3 hrs by Western blot method; assay type: cell-based
[5] = biological target: Transcription factor p65 (Mus musculus) (UniProt Q04207); assay: Inhibition of LPS-induced NF-kB p65 phosphorylation in mouse RAW264.7 cells at 0.3 ug/ml preincubated for 12 hrs followed by LPS stimulation for 3 hrs by Western blot method; assay type: cell-based
[6] = biological target: Transcription factor p65 (Mus musculus) (UniProt Q04207); assay: Inhibition of LPS-induced NF-kB p65 activation in mouse RAW264.7 cells at 0.3 ug/ml preincubated for 12 hrs followed by LPS stimulation for 3 hrs by DAPI staining based inverted fluorescence microscopic method; assay type: cell-based
[7] = biological target: Transcription factor p65 (Mus musculus) (UniProt Q04207); assay: Inhibition of NF-kB p65 in mouse RAW264.7 cells assessed as reduction in LPS-induced iNOS expression at 0.3 ug/ml preincubated for 12 hrs followed by LPS stimulation for 3 hrs by Western blot method; assay type: cell-based

Transcription factor p65 (Mus musculus), sequence (Q04207 whole entry): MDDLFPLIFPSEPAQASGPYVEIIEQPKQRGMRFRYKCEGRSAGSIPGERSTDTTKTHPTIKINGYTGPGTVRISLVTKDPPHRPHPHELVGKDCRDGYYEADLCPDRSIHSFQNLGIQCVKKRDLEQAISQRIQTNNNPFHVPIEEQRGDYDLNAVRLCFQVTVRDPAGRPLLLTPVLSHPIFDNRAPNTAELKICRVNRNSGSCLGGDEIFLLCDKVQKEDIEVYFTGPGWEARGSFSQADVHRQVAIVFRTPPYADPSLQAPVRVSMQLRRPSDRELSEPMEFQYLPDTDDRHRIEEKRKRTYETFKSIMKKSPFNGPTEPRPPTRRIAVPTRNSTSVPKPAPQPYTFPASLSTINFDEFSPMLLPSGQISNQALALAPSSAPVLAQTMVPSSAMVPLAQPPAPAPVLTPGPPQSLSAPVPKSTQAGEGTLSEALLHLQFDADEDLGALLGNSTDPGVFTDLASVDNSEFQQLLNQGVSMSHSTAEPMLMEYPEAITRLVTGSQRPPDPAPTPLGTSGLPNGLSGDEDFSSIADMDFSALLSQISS

CN(C)c1ccc(/C=C/C=C/C(=O)c2ccccc2Cl)cc1
solubility at 1 h [1]: 7.55 µg/mL (≈ 24.2 µM)

COc1cc(C(=O)/C=C/C=C/c2ccccc2)cc(OC)c1OC
inhibition (RAW264.7 [2]): Active
inhibition (RAW264.7 [3]): Active
solubility at 1 h [1]: 20.3 µg/mL (≈ 62.7 µM)

COc1ccccc1/C=C/C=C/C(=O)c1ccccc1Cl
solubility at 1 h [1]: 9.45 µg/mL (≈ 31.6 µM)

COc1ccccc1/C=C/C=C/C(=O)c1ccc([N+](=O)[O-])cc1
solubility at 1 h [1]: 13.9 µg/mL (≈ 45.1 µM)

O=C(/C=C/C=C/c1ccccc1)c1ccc(F)cc1F
solubility at 1 h [1]: 7.86 µg/mL (≈ 29.1 µM)

O=C(/C=C/C=C/c1ccccc1)c1ccc([N+](=O)[O-])cc1
solubility at 1 h [1]: 13.2 µg/mL (≈ 47.3 µM)

O=C(/C=C/C=C/c1ccccc1)c1ccccc1Cl
solubility at 1 h [1]: 8.2 µg/mL (≈ 30.5 µM)

COc1ccccc1/C=C/C=C/C(=O)c1cc(OC)c(OC)c(OC)c1
inhibition (RAW264.7 [2]): Active
inhibition (RAW264.7 [3]): Active
solubility at 1 h [1]: 25.9 µg/mL (≈ 73.1 µM)

COc1cc(/C=C/C(=O)CC(=O)/C=C/c2ccc(O)c(OC)c2)ccc1O [CURCUMIN]
inhibition (RAW264.7 [2]): Active
inhibition (RAW264.7 [3]): Active
solubility ([1]; 1 h): 12.87 µg/mL (≈ 34.9 µM)

CC(C)c1ccc(C(=O)/C=C/C=C/c2ccccc2)cc1
solubility at 1 h [1]: 6.78 µg/mL (≈ 24.5 µM)

Cc1ccc(S(=O)(=O)/C=C/C#N)cc1
inhibition [4]: Active
inhibition [5]: Active
inhibition [6]: Active
inhibition [7]: Active
